Measured values reported in US20130158098A1, “Alkenyl Substituted Cycloaliphatic Compounds as Chemical Inducers of Proximity” (priority 2010, published 2013).

Legend:
[1] = subchronic toxicity studies; cited from earlier work
[2] = test system: ERK1/2 phosphorylation (SOS-PYLcs and myr-ABIcs); test: SOS activation: ABA-induced ERK phosphorylation by SOS localization; format: cell-based, human; conditions: cells expressing SOS-PYLcs and myr-ABIcs; 250 μM ABA
Protocol: Six-well plates of 293T cells containing 0.5×10^6 cells per well were transfected with 3 μg of total DNA using FuGENE HD (Roche). Cells were transfected with expression plasmids encoding myr-ABI, SOS-PYL, SOS-FKBP, myr-SOS, and an expression vector control, pUC19. ABA (250 μM) was added at 3, 6, 12, and 24 hours before harvesting the cells. Cells were lysed in 1× lysis buffer [50 mM Tris-HCl (pH 7.5), 300 mM NaCl, 1% NP-40, 0.1% SDS, 0.5% sodium deoxycholate, 20 mM NaF, 1 mM Na3VO4, 1 mM phenylmethylsulfonyl fluoride (PMSF), and 1× protease inhibitor mixture (Calbiochem)] for 20 min at 4° C. After centrifugation at 14,000 g for 15 min, proteins were separated on 4 to 12% bis-tris NuPAGE gels (Invitrogen) and transferred to polyvinylidene difluoride membranes. […] Infrared dye 800 and 680 anti-rabbit or anti-mouse secondary antibodies were incubated at room temperature for 1 hour in 10% BSA-PBST and detected with a LI-COR/Odyssey scanner. […]

[3] = ABA stability in cell culture (luciferase biofunctional readout); format: in vitro ADME, Chinese hamster
Protocol: FIG. 3C provides the results of a stability test of ABA in cell culture conditions. CHO cells were pre-transfected with the activation and reporter DNA constructs for 24 hours. 100 μM ABA was then added to the culture and cells were assayed for luciferase activity after 10 hours. During the 10-hour incubation, the cell culture media were replaced with media containing freshly added ABA every 1, 2.5, 5 hour or no replacement. FIG. 4A illustrates the results of an experiment in which human serum pre-incubated ABA was used to induce luciferase transcription. ABA was incubated with pure non-heat inactivated human serum at 37° C. for indicated time period. ABA containing serum was then added to the CHO cell culture to a final 100 μM ABA concentration for 25 hours and cells were assayed for luciferase activity. The cells were pre-transfected with the activation and reporter DNA constructs for 24 hours. FIG. 4B illustrates the results of an experiment in which fetal bovine serum pre-incubated ABA was used to induce luciferase transcription. ABA was incubated with pure heat inactivated fetal bovine serum at 37° C. for indicated time period. ABA containing serum was then added to the CHO cell culture to a final 100 μM ABA concentration for 10 hours and cells were assayed for luciferase activity. The cells were pre-transfected with the activation and reporter DNA constructs for 24 hours.
In plants, ABA had been reported to be unstable due to active enzymatic degradation (Cutler, A. J. and Krochko, J. E. (1999) Formation and breakdown of ABA. Trends Plant Sci. 4, 472-478). […] The activity of residual ABA in the serum was measured by its ability to induce the transcriptional activation of the luciferase reporter in cells expressing the ABA-activator cassette. […] Using this assay, the bioavailability in mice was evaluated. […]

**Q.** For `CC1=CC(=O)CC(C)(C)C1(O)/C=C/C(C)=C/C(=O)O` (centres unmarked) [ABA, abscisic acid], which “no observable adverse effect level (NOAEL)” value [1] is on record?
**A.** 20,000 mg/kg per day

**Q.** And the “phosphorylation of ERK” value [2]?
**A.** induced the phosphorylation of ERK

**Q.** What about the ABA activity retained ([3]; after 24 hours of incubation with CHO cells) of the same compound?
**A.** about 60%

**Q.** What about the ABA activity retained ([3]; after 48 hours of incubation with CHO cells) of the same compound?
**A.** around 23%

**Q.** What about the “reduction in ability to induce transcription of luciferase” value ([3]; cell culture media, up to 48 hours) of the same compound?
**A.** no significant reduction
